Test results as given in paper PMC3265452 (PLoS Neglected Tropical Diseases, 2012).
Structures can show the parent of a compound that is named as a salt. Where two headings read alike, the source gives them in different places.

Target: AaDOP2 (Aedes aegypti, UniProt H6D5H2)
Test: AaDOP2 antagonist screen of the LOPAC1280 library (HEK-CRELuc-Aadop2 cells, luminescence)
Type: cell-based
[1] = 10 µM compound, 300 nM dopamine, 2 hr, hit = compound effect <20

Sequence of AaDOP2 (H6D5H2 1-476): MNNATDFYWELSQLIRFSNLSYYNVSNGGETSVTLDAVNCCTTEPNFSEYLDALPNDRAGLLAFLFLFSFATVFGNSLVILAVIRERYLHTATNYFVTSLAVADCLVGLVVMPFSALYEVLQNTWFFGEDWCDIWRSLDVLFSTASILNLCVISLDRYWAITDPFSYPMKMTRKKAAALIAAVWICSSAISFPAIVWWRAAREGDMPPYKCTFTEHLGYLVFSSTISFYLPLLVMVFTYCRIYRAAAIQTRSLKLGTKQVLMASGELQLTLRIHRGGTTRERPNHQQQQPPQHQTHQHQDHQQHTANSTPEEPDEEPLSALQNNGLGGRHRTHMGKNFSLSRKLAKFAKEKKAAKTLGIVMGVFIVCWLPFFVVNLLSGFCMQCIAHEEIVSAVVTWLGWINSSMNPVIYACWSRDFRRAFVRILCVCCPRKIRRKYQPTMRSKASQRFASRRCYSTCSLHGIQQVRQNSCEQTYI

Structure (SMILES) | Compound effect (percent receptor signaling in presence of test compound, relative lux units relative to the SCH23390 control) | Compound effect (percent receptor signaling in presence of test compound, relative lux units relative to the SCH23390 control) [1] | inhibition at 10 µM (read-out: % of the SCH23390 effect (percent inhibition of receptor response relative to the SCH23390 control))
CCn1cc(C(=O)[O-])c(=O)c2ccc(C)nc21.[Na+] [Compound 852, Nalidixic acid sodium] | 99 |  | 
Oc1ccc2c3c1O[C@H]1[C@@H](O)CC[C@@]4(O)[C@@H](C2)N(CC2CCC2)CC[C@]314 [Compound 853, Nalbuphine hydrochloride] | 96 |  | 
O=C(O)c1cc([N+](=O)[O-])ccc1NCCCc1ccccc1 [Compound 854, 5-Nitro-2-(3-phenylpropylamino)benzoic acid] | 99 |  | 
O=C(Nc1cc(C(=O)Nc2ccc(S(=O)(=O)[O-])cc2S(=O)(=O)[O-])cc(C(=O)Nc2ccc(S(=O)(=O)[O-])cc2S(=O)(=O)[O-])c1)Nc1cc(C(=O)Nc2ccc(S(=O)(=O)[O-])cc2S(=O)(=O)[O-])cc(C(=O)Nc2ccc(S(=O)(=O)[O-])cc2S(=O)(=O)[O-])c1.[Na+].[Na+].[Na+].[Na+].[Na+].[Na+].[Na+].[Na+] [Compound 855, NF449 octasodium salt] |  | 112% | 
CC(Cc1ccc(O)c(O)c1)C(C)Cc1ccc(O)c(O)c1 (stereo not drawn) [Compound 856, Nordihydroguaiaretic acid from Larrea divaricata (creosote bush)] |  | 64% | 
CN1CCC[C@H]1c1cccnc1.O=C(O)C(O)C(O)C(=O)O.O=C(O)C(O)C(O)C(=O)O [Compound 857, (-)-Nicotine hydrogen tartrate salt] | 92 |  | 
N=C(NCCC[C@H](N)C(=O)O)N[N+](=O)[O-] [Compound 858, NG-Nitro-L-arginine] | 95 |  | 
c1ccc2c(CC3=NCCN3)cccc2c1 [Compound 859, Naphazoline hydrochloride] | 90 |  | 
O=C(O)CC[N+](=O)[O-] [Compound 860, 3-Nitropropionic acid] | 91 |  | 
COC(=O)[C@@H](N)CCCN=C(N)N[N+](=O)[O-].Cl [Compound 861, NG-Nitro-L-arginine methyl ester hydrochloride] |  | 96% | 
CNCCC=C1c2ccccc2CCc2ccccc21 [Compound 863, Nortriptyline hydrochloride] | 4 |  | 96%
NC(=O)C1=CN([C@@H]2O[C@H](COP(=O)(O)OP(=O)(O)OC[C@H]3O[C@@H](n4cnc5c(N)ncnc54)[C@H](OP(=O)(O)O)[C@@H]3O)[C@@H](O)[C@H]2O)C=CC1 [Compound 864, NADPH tetrasodium] |  | 92% | 
COC(=O)C1=C(C)NC(C)=C(C(=O)OCCN(C)Cc2ccccc2)C1c1cccc([N+](=O)[O-])c1 (stereo not drawn) [Compound 865, Nicardipine hydrochloride] | 76 |  | 
COC(=O)C1=C(C)NC(C)=C(C(=O)OC)C1c1ccccc1[N+](=O)[O-] [Compound 866, Nifedipine] | 78 |  | 
C=CCN1CC[C@]23c4c5ccc(O)c4O[C@H]2C(=O)CC[C@@]3(O)[C@H]1C5 [Compound 867, Naloxone hydrochloride] | 75 |  | 
O=[N+]([O-])c1cccc2cn[nH]c12 [Compound 868, 7-Nitroindazole] | 78 |  | 
C[N+](C)(C)CCC(=O)c1cccc2ccccc12.[I-] [Compound 870, 2-(alpha-Naphthoyl)ethyltrimethylammonium iodide] | 74 |  | 
